{"source": "patent US12364709B2", "about": "“Bioavailable poly amines” (AMINEX THERAPEUTICS, INC., priority 2016, dated 2025)", "experiment": "5 day repeat oral dosing PK of AMXT 1501 dicaprate", "format": "in vivo, beagle dogs", "protocol": "The pharmacokinetic (PK) profiles after dosing on Days 1 and 5 were evaluated using standard noncompartmental methods. The following experimental design was used. Beagle dogs, 1 or 2 males and 1 or 2 females for a total of 3 dogs per group, were randomly assigned to the four treatment groups as outlined in Table 19. AMXT 1501 dicaprate salt was administered in tablet form once daily for five days. […] Plasma samples were analyzed for AMXT 1501 concentration via a liquid chromatography/mass spectrometry (LC/MS-MS) procedure and the resulting concentration versus time data were used to estimate individual animal PK parameters using noncompartmental analysis (NCA).", "key": {"[1]": {"conditions": "8 mg/kg PO once daily, Day 5, individual animals"}, "[2]": {"conditions": "8 mg/kg PO, Day 1, individual animals"}, "[3]": {"conditions": "16 mg/kg PO once daily, Day 5, individual animals"}, "[4]": {"conditions": "16 mg/kg PO, Day 1, individual animals"}, "[5]": {"conditions": "32 mg/kg PO once daily, Day 5, individual animals"}, "[6]": {"conditions": "32 mg/kg PO, Day 1, individual animals"}}, "note": "Several values for one entry are separate records, joined by “and”; a condition that tells them apart may be missing. Equal entries are not always repeated. Where two headings read alike, the source gives them in different places.", "data": [{"smiles": "CCCCCCCCCCCCCCCC(=O)NCCCC[C@@H](N)C(=O)NCCCNCCCCNCCCN", "note": "[AMXT 1501 dicaprate]", "values": [{"measurement": "AUC(0-t)", "setting": "[1]", "result": "5620 ng·h/mL and 3100 ng·h/mL"}, {"measurement": "Cmax", "setting": "[1]", "result": "360 ng/mL and 254 ng/mL"}, {"measurement": "t1/2", "setting": "[1]", "result": 7.82, "unit": "h"}, {"measurement": "AUC(0-t)", "setting": "[2]", "result": 2050, "unit": "ng·h/mL"}, {"measurement": "Cmax", "setting": "[2]", "result": 168, "unit": "ng/mL"}, {"measurement": "AUC(0-t)", "setting": "[3]", "result": 11000, "unit": "ng·h/mL"}, {"measurement": "Cmax", "setting": "[3]", "result": "454 ng/mL and 714 ng/mL"}, {"measurement": "Tmax", "setting": "[3]", "result": 12.0, "unit": "h"}, {"measurement": "AUC(0-t)", "setting": "[4]", "result": "3190 ng·h/mL and 3300 ng·h/mL"}, {"measurement": "Cmax", "setting": "[4]", "result": 249, "unit": "ng/mL"}, {"measurement": "t1/2", "setting": "[4]", "result": "36.2 h and 10.3 h"}, {"measurement": "AUC(0-t)", "setting": "[5]", "result": "11000 ng·h/mL and 11100 ng·h/mL"}, {"measurement": "Cmax", "setting": "[5]", "result": "662 ng/mL and 708 ng/mL"}, {"measurement": "AUC(0-t)", "setting": "[6]", "result": "5830 ng·h/mL and 4900 ng·h/mL"}, {"measurement": "Cmax", "setting": "[6]", "result": "446 ng/mL and 333 ng/mL"}, {"measurement": "t1/2", "setting": "[6]", "result": "27.1 h and 10.0 h"}, {"measurement": "half-life", "setting": "both sexes, beagle, dog, plasma, oral, Day 1, animals where it could be estimated, read-out: mean Day 1 t1/2 values, range across groups", "result": "479 to 1390", "unit": "min"}, {"measurement": "half-life at 5 days", "setting": "both sexes, beagle, dog, plasma, oral, Day 5, animals where it could be estimated, read-out: mean Day 5 t1/2 values, range across groups", "result": "521 to 1250", "unit": "min"}, {"measurement": "AUC(0-t)", "setting": "both sexes, beagle, dog, plasma, po, 8 mg/kg, 8 mg/kg PO once daily, Day 5, group mean, read-out: AUC0-t Mean", "result": 4750, "unit": "ng·h/mL"}, {"measurement": "Cmax", "setting": "both sexes, beagle, dog, plasma, po, 8 mg/kg, 8 mg/kg PO once daily, Day 5, group mean, read-out: Cmax Mean", "result": 340, "unit": "ng/mL"}, {"measurement": "Tmax", "setting": "both sexes, beagle, dog, plasma, po, 8 mg/kg, 8 mg/kg PO once daily, Day 5, group mean, read-out: Tmax Mean", "result": 5.33, "unit": "h"}, {"measurement": "half-life", "setting": "both sexes, beagle, dog, plasma, po, 8 mg/kg, 8 mg/kg PO once daily, Day 5, group mean, read-out: t1/2 Mean (converted)", "result": 521, "unit": "min"}, {"measurement": "AUC(0-t)", "setting": "both sexes, beagle, dog, plasma, po, 8 mg/kg, 8 mg/kg PO once daily, Day 5, individual animals, read-out: AUC0-t", "result": 5530, "unit": "ng·h/mL"}, {"measurement": "Cmax", "setting": "both sexes, beagle, dog, plasma, po, 8 mg/kg, 8 mg/kg PO once daily, Day 5, individual animals, read-out: Cmax", "result": 405, "unit": "ng/mL"}, {"measurement": "Tmax", "setting": "both sexes, beagle, dog, plasma, po, 8 mg/kg, 8 mg/kg PO once daily, Day 5, individual animals, read-out: Tmax", "result": 8, "unit": "h"}, {"measurement": "half-life", "setting": "both sexes, beagle, dog, plasma, po, 8 mg/kg, 8 mg/kg PO once daily, Day 5, individual animals, read-out: t1/2 (converted)", "result": 573, "unit": "min"}, {"measurement": "AUC(0-t)", "setting": "both sexes, beagle, dog, plasma, po, 8 mg/kg, 8 mg/kg PO, Day 1, group mean, read-out: AUC0-t Mean", "result": 2030, "unit": "ng·h/mL"}, {"measurement": "Cmax", "setting": "both sexes, beagle, dog, plasma, po, 8 mg/kg, 8 mg/kg PO, Day 1, group mean, read-out: Cmax Mean", "result": 154, "unit": "ng/mL"}, {"measurement": "Tmax", "setting": "both sexes, beagle, dog, plasma, po, 8 mg/kg, 8 mg/kg PO, Day 1, group mean, read-out: Tmax Mean", "result": 6, "unit": "h"}, {"measurement": "half-life", "setting": "both sexes, beagle, dog, plasma, po, 8 mg/kg, 8 mg/kg PO, Day 1, group mean, read-out: t1/2 Mean (converted)", "result": 558, "unit": "min"}, {"measurement": "AUC(0-t)", "setting": "both sexes, beagle, dog, plasma, po, 8 mg/kg, 8 mg/kg PO, Day 1, individual animals, read-out: AUC0-t", "result": 2010, "unit": "ng·h/mL"}, {"measurement": "Cmax", "setting": "both sexes, beagle, dog, plasma, po, 8 mg/kg, 8 mg/kg PO, Day 1, individual animals, read-out: Cmax", "result": 139, "unit": "ng/mL"}, {"measurement": "Tmax", "setting": "both sexes, beagle, dog, plasma, po, 8 mg/kg, 8 mg/kg PO, Day 1, individual animals, read-out: Tmax", "result": 8, "unit": "h"}, {"measurement": "half-life", "setting": "both sexes, beagle, dog, plasma, po, 8 mg/kg, 8 mg/kg PO, Day 1, individual animals, read-out: t1/2 (converted)", "result": 558, "unit": "min"}, {"measurement": "AUC(0-t)", "setting": "both sexes, beagle, dog, plasma, po, 16 mg/kg, 16 mg/kg PO once daily, Day 5, group mean, read-out: AUC0-t Mean", "result": 8890, "unit": "ng·h/mL"}, {"measurement": "Cmax", "setting": "both sexes, beagle, dog, plasma, po, 16 mg/kg, 16 mg/kg PO once daily, Day 5, group mean, read-out: Cmax Mean", "result": 564, "unit": "ng/mL"}, {"measurement": "Tmax", "setting": "both sexes, beagle, dog, plasma, po, 16 mg/kg, 16 mg/kg PO once daily, Day 5, group mean, read-out: Tmax Mean", "result": 8, "unit": "h"}, {"measurement": "half-life", "setting": "both sexes, beagle, dog, plasma, po, 16 mg/kg, 16 mg/kg PO once daily, Day 5, group mean, read-out: t1/2 Mean (converted)", "result": 702, "unit": "min"}, {"measurement": "AUC(0-t)", "setting": "both sexes, beagle, dog, plasma, po, 16 mg/kg, 16 mg/kg PO once daily, Day 5, individual animals, read-out: AUC0-t", "result": 9410, "unit": "ng·h/mL"}, {"measurement": "Cmax", "setting": "both sexes, beagle, dog, plasma, po, 16 mg/kg, 16 mg/kg PO once daily, Day 5, individual animals, read-out: Cmax", "result": 523, "unit": "ng/mL"}, {"measurement": "half-life", "setting": "both sexes, beagle, dog, plasma, po, 16 mg/kg, 16 mg/kg PO once daily, Day 5, individual animals, read-out: t1/2 (converted)", "result": 702, "unit": "min"}, {"measurement": "AUC(0-t)", "setting": "both sexes, beagle, dog, plasma, po, 16 mg/kg, 16 mg/kg PO, Day 1, group mean, read-out: AUC0-t Mean", "result": 3450, "unit": "ng·h/mL"}, {"measurement": "Cmax", "setting": "both sexes, beagle, dog, plasma, po, 16 mg/kg, 16 mg/kg PO, Day 1, group mean, read-out: Cmax Mean", "result": 238, "unit": "ng/mL"}, {"measurement": "Tmax", "setting": "both sexes, beagle, dog, plasma, po, 16 mg/kg, 16 mg/kg PO, Day 1, group mean, read-out: Tmax Mean", "result": 5.33, "unit": "h"}, {"measurement": "half-life", "setting": "both sexes, beagle, dog, plasma, po, 16 mg/kg, 16 mg/kg PO, Day 1, group mean, read-out: t1/2 Mean (converted)", "result": 1390, "unit": "min"}, {"measurement": "AUC(0-t)", "setting": "both sexes, beagle, dog, plasma, po, 16 mg/kg, 16 mg/kg PO, Day 1, individual animals, read-out: AUC0-t", "result": 3870, "unit": "ng·h/mL"}, {"measurement": "Cmax", "setting": "both sexes, beagle, dog, plasma, po, 16 mg/kg, 16 mg/kg PO, Day 1, individual animals, read-out: Cmax", "result": 202, "unit": "ng/mL"}, {"measurement": "Tmax", "setting": "both sexes, beagle, dog, plasma, po, 16 mg/kg, 16 mg/kg PO, Day 1, individual animals, read-out: Tmax", "result": 8, "unit": "h"}, {"measurement": "AUC(0-t)", "setting": "both sexes, beagle, dog, plasma, po, 32 mg/kg, 32 mg/kg PO once daily, Day 5, group mean, read-out: AUC0-t Mean", "result": 13000, "unit": "ng·h/mL"}, {"measurement": "Cmax", "setting": "both sexes, beagle, dog, plasma, po, 32 mg/kg, 32 mg/kg PO once daily, Day 5, group mean, read-out: Cmax Mean", "result": 837, "unit": "ng/mL"}, {"measurement": "Tmax", "setting": "both sexes, beagle, dog, plasma, po, 32 mg/kg, 32 mg/kg PO once daily, Day 5, group mean, read-out: Tmax Mean", "result": 6.67, "unit": "h"}, {"measurement": "half-life", "setting": "both sexes, beagle, dog, plasma, po, 32 mg/kg, 32 mg/kg PO once daily, Day 5, group mean, read-out: t1/2 Mean (converted)", "result": 642, "unit": "min"}, {"measurement": "AUC(0-t)", "setting": "both sexes, beagle, dog, plasma, po, 32 mg/kg, 32 mg/kg PO once daily, Day 5, individual animals, read-out: AUC0-t", "result": 16800, "unit": "ng·h/mL"}, {"measurement": "Cmax", "setting": "both sexes, beagle, dog, plasma, po, 32 mg/kg, 32 mg/kg PO once daily, Day 5, individual animals, read-out: Cmax", "result": 1140, "unit": "ng/mL"}, {"measurement": "Tmax", "setting": "both sexes, beagle, dog, plasma, po, 32 mg/kg, 32 mg/kg PO once daily, Day 5, individual animals, read-out: Tmax", "result": 4, "unit": "h"}, {"measurement": "half-life", "setting": "both sexes, beagle, dog, plasma, po, 32 mg/kg, 32 mg/kg PO once daily, Day 5, individual animals, read-out: t1/2 (converted)", "result": 642, "unit": "min"}, {"measurement": "AUC(0-t)", "setting": "both sexes, beagle, dog, plasma, po, 32 mg/kg, 32 mg/kg PO, Day 1, group mean, read-out: AUC0-t Mean", "result": 5660, "unit": "ng·h/mL"}, {"measurement": "Cmax", "setting": "both sexes, beagle, dog, plasma, po, 32 mg/kg, 32 mg/kg PO, Day 1, group mean, read-out: Cmax Mean", "result": 447, "unit": "ng/mL"}, {"measurement": "Tmax", "setting": "both sexes, beagle, dog, plasma, po, 32 mg/kg, 32 mg/kg PO, Day 1, group mean, read-out: Tmax Mean", "result": 5.33, "unit": "h"}, {"measurement": "half-life", "setting": "both sexes, beagle, dog, plasma, po, 32 mg/kg, 32 mg/kg PO, Day 1, group mean, read-out: t1/2 Mean (converted)", "result": 1120, "unit": "min"}, {"measurement": "AUC(0-t)", "setting": "both sexes, beagle, dog, plasma, po, 32 mg/kg, 32 mg/kg PO, Day 1, individual animals, read-out: AUC0-t", "result": 6250, "unit": "ng·h/mL"}, {"measurement": "Cmax", "setting": "both sexes, beagle, dog, plasma, po, 32 mg/kg, 32 mg/kg PO, Day 1, individual animals, read-out: Cmax", "result": 563, "unit": "ng/mL"}, {"measurement": "Tmax", "setting": "both sexes, beagle, dog, plasma, po, 32 mg/kg, 32 mg/kg PO, Day 1, individual animals, read-out: Tmax", "result": 8, "unit": "h"}, {"measurement": "Tmax", "setting": "both sexes, beagle, dog, plasma, po, 32 mg/kg, single or repeat once daily PO 8, 16, or 32 mg/kg, postdose, read-out: Tmax observed", "result": "4 to 12", "unit": "h"}]}]}
